Data from PMC3297362 (Journal of Medicinal Chemistry, 2012).

Key:
[1] = biological target: T1, hCOX-2 in HNSCC 1483 cells (Homo sapiens, UniProt P35354); format: cell-based; conditions: at 5 μM
T1 sequence (P35354 18-604): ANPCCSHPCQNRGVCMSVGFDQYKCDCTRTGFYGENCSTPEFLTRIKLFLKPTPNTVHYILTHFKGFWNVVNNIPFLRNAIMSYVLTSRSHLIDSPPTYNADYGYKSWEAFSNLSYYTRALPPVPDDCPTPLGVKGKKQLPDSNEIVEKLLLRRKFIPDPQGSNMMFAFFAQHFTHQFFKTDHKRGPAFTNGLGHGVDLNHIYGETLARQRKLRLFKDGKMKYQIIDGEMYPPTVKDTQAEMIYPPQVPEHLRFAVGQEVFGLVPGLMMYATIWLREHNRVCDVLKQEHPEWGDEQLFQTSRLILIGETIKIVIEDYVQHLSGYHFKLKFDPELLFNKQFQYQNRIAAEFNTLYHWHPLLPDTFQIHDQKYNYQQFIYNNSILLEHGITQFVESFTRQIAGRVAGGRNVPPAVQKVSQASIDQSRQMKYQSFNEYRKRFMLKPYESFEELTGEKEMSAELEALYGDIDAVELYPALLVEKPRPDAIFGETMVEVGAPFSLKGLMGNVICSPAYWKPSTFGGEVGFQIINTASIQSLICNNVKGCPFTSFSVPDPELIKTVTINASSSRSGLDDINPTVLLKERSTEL

[2] = system: peroxisome proliferator-activated receptor (PPAR)γ; conditions: cell culture; cited from earlier work
[3] = biological target: T2, ovine COX-1 (Ovis aries, UniProt P05979); format: biochemical
T2 sequence (P05979 25-600): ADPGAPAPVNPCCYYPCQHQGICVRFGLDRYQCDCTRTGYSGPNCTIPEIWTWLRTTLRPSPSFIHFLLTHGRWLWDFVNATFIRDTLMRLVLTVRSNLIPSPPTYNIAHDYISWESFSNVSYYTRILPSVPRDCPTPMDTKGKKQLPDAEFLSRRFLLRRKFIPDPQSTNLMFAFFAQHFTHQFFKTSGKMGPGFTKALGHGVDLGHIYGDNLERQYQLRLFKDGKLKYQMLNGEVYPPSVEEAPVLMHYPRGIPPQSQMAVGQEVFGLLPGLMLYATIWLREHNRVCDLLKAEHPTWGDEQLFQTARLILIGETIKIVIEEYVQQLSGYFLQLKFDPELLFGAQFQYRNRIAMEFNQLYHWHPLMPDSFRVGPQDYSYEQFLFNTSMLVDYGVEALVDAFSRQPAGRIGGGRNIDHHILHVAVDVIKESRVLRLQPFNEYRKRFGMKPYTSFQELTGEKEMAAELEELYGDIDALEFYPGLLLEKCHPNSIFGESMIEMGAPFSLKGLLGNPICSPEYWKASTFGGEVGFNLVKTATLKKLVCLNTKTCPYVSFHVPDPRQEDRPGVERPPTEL

[4] = biological target: T3, murine COX-2 (Mus musculus, UniProt Q05769); experiment: biochemical; conditions: COX-2 IC50, purified mCOX-2; 5 μM AA
T3 sequence (Q05769 18-604): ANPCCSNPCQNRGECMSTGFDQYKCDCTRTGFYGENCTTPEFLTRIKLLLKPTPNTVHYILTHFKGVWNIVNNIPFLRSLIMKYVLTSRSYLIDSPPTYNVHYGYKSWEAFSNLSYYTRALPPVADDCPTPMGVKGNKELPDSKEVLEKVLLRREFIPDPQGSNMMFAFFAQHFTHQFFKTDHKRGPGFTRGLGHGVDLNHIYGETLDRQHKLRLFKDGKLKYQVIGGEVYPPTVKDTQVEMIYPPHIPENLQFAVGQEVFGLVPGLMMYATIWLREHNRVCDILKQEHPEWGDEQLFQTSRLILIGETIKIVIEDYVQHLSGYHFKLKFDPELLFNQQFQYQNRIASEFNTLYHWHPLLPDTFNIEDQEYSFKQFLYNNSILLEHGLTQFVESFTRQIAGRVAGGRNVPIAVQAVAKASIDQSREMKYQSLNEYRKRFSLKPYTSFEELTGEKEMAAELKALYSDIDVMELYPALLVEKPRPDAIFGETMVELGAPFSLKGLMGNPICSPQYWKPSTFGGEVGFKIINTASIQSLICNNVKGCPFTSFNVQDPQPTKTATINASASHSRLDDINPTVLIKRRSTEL

Structure (SMILES)	inhibition of hCOX-2 in HNSCC 1483 cells (in words) [1]	activation of PPARγ (in words) [2]	improvement in activity against COX-1 as compared with reference compound 2 [3]	IC50 [4]
O=C(O)CC1=C/C(=C\c2ccc(-c3ccccc3)cc2)c2ccc(F)cc21 [compound 13a]	no inhibition	potent activator	–	–
CSc1ccc(/C=C2\C=C(CC(=O)O)c3cc(F)ccc32)cc1 [compound 2, (E)-2-(5-fluoro-1-(4-(methylthio)benzylidene)-1H-inden-3-yl)acetic acid]	no inhibition	–	–	–
O=C(CC1=C/C(=C\c2ccc(-c3ccccc3)cc2)c2ccc(F)cc21)NS(=O)(=O)C(F)(F)F [compound 21c, (E)-2-(1-([1,1′-Biphenyl]-4-ylmethylene)-5-fluoro-1H-inden-3-yl)-N-((trifluoromethyl)sulfonyl)-acetamide]	–	–	more than 4 fold	14 µM
